The test system of data set [1] is Liver microsomes. The data set is described as follows: Intrinsic clearance in human liver microsomes. The class given is ADME, Microsome. On the technique in general: Microsomes from liver hold many membrane-bound enzymes, among them those of drug oxidation.
A short description of data set [2]: Volume of distribution at steady state in Sprague-Dawley rat at 2 mg/kg, po and 1 mg/kg, iv by HPLC method. The class given is ADME, organism-based. Particulars: in vivo, read-out: Vdss.
For data set [3], the system named is Liver microsomes. The data set is described as follows: Intrinsic clearance in rat liver microsomes. The class given is ADME, Microsome.
A short description of data set [4]: Absolute oral bioavailability in Sprague-Dawley rat at 2 mg/kg by HPLC method. The class given is ADME, organism-based. Particulars: in vivo.
Data set [5] can be described thus: Plasma clearance in Sprague-Dawley rat at 2 mg/kg, po and 1 mg/kg, iv by HPLC method. The class given is ADME, organism-based.
Data set [6] in a line: Plasma concentration in Sprague-Dawley rat at 10 mg/kg, po after 4 hrs. The arrangement: dose 10 mg/kg, route oral. The class given is ADME, organism-based.
The nature of data set [7]: Plasma concentration in Sprague-Dawley rat at 3 mg/kg, po after 1 hr. The class given is ADME, organism-based. The arrangement: dose 3 mg/kg, route oral.
Data set [8] in a line: Drug uptake in Sprague-Dawley rat brain at 10 mg/kg, po after 4 hrs. Particulars: read-out: Drug uptake. The class given is ADME, organism-based. The arrangement: dose 10 mg/kg, route oral.
A short description of data set [9]: Drug uptake in Sprague-Dawley rat brain at 3 mg/kg, po after 1 hr. The class given is ADME, organism-based. Further details: dose 3 mg/kg, route oral. Conditions: read-out: Drug uptake.

Each structure is given as a SMILES string.

`CC(C)S(=O)(=O)NCCOCCNc1nc(-c2ccccn2)cs1` came in with a CL in the data set with Liver microsomes [1] of 1.1 L/min.
The term bioavailability denotes dose-corrected exposure relative to a reference, in per cent. Read a low bioavailability as poor availability. On to `CC(C)S(=O)(=O)NCCCCCNc1nc(-c2ccccn2)cs1`, for which the Vd in [2] was 22 L/kg. Also, the CL came out at 2.2 L/min in the data set with Liver microsomes [1] and 72 mL/min in the data set with Liver microsomes [3]. The bioavailability in [4] worked out at 49%. Moreover, in data set [5], the clearance was 383 mL/min/kg.
With `O=S(=O)(NCCCCCNc1nc(-c2ccccn2)cs1)N1CCOCC1`, the figures for the CL in the data set with Liver microsomes [1] and with Liver microsomes [3] were 2.9 L/min and 44 mL/min, respectively.
The matching figures for `CC(C)S(=O)(=O)NCCCCCNc1nc(-c2ccsc2)cs1`: 5.4 L/min and 87 mL/min.
Turning to `CN(C)S(=O)(=O)NCCCCCNc1nc(-c2ccccn2)cs1`, in [2], the Vd was 47 L/kg. Further, the concentration at 4 h is 24 ng/mL in data set [6] and 12 ng/g in data set [8]. Further, the concentration at 1 h in [7] came out at 12 ng/mL; in data set [9] it was 4 ng/g. In addition, the CL in the data set with Liver microsomes [1] was determined as 1.8 L/min; with Liver microsomes [3], 110 mL/min. Moreover, the bioavailability in data set [4] came to 26%. Also, in data set [5], the clearance is 140 mL/min/kg.
In turn, `Cc1nc(C)c(S(=O)(=O)NCCCCCNc2nc(-c3ccccn3)cs2)s1` displayed a CL with Liver microsomes [1] of 27 L/min.
On to `CCN(CC)S(=O)(=O)NCCCCCNc1nc(-c2ccccn2)cs1`, for which the values for the CL with Liver microsomes [1] and with Liver microsomes [3] were 27 L/min and 290 mL/min, respectively.
Turning to `CC1CN(S(=O)(=O)NCCCCCNc2nc(-c3ccccn3)cs2)CC(C)O1` (stereo not given), the CL in the data set with Liver microsomes [1] amounted to 11 L/min; in the data set with Liver microsomes [3] it was 74 mL/min.
Take `COCCN(CCOC)S(=O)(=O)NCCCCCNc1nc(-c2ccccn2)cs1`: the CL in the data set with Liver microsomes [1] worked out at 16 L/min; in the data set with Liver microsomes [3], 150 mL/min.
Take `CS(=O)(=O)NC[C@H]1CC[C@H](Nc2nc3c(s2)CCSc2ccccc2-3)CC1`: the CL in the data set on Liver microsomes [1] is 2.5 L/min; with Liver microsomes [3], 40 mL/min.
On to `CN1CCN(S(=O)(=O)NCCCCCNc2nc(-c3ccccn3)cs2)CC1`, for which the CL with Liver microsomes [1] came out at 2.5 L/min; in the data set on Liver microsomes [3], 120 mL/min.

The values above are taken from ChEMBL document CHEMBL1909589, “5-(2'-Pyridyl)-2-aminothiazoles: alkyl amino sulfonamides and sulfamides as potent NPY(5) antagonists” (Bioorg Med Chem Lett, 2011).
